Reference: ChEMBL document CHEMBL1201862, “PubChem BioAssay data set” (2004)
Calls of active or inactive are those of the source.

Tests used:
[1] = system: Escherichia coli; assay: microbe, parasite or virus in culture
[2] = molecular target: T1, Alkaline phosphatase, tissue-nonspecific isozyme (Homo sapiens, UniProt P05186); assay: activation of tissue-nonspecific alkaline phosphatase – biochemical, TNAP isozyme, human IAP uHTS hits, selectivity assay for human IAP activator project, dose response (AID 488886); format: functional;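 further: potency of compounds raising TNAP activity as a selectivity check on IAP activators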
T1 sequence (P05186 whole entry): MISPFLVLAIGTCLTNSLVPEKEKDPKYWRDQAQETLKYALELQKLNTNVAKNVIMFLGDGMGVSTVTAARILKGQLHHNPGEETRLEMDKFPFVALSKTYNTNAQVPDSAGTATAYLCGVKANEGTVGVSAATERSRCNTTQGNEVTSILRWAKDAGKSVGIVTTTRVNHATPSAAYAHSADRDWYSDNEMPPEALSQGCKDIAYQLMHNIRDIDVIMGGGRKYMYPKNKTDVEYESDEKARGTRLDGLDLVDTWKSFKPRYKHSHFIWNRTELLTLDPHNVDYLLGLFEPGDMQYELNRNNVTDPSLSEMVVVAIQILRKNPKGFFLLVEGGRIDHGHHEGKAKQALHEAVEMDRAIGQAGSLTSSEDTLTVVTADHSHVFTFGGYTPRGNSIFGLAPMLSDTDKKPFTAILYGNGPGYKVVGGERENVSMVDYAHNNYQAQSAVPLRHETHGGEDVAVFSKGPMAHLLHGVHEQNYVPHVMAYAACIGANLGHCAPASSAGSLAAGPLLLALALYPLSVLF

[3] = molecular target: T2, Intestinal-type alkaline phosphatase (Homo sapiens, UniProt P09923); assay: activation of human intestinal alkaline phosphatase – biochemical, luminescent, uHTS hits, set 2, dose response (AID 488817); format: functional;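 further: potency of activators that raise enzyme activity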
T2 sequence (P09923 whole entry): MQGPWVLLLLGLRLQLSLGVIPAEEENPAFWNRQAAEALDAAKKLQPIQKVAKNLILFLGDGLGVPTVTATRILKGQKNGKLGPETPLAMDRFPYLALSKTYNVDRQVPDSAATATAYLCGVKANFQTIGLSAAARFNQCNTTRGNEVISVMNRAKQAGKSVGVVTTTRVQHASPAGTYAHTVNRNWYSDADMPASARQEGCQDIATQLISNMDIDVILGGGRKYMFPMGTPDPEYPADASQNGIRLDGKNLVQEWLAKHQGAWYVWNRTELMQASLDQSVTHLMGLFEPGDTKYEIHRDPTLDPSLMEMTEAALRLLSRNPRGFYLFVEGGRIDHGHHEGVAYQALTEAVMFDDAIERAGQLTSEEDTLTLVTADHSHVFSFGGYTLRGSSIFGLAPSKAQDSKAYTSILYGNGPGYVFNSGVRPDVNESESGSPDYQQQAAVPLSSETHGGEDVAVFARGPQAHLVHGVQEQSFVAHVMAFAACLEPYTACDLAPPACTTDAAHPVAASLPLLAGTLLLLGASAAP

[4] = molecular target: T2, Intestinal-type alkaline phosphatase; assay: human intestinal alkaline phosphatase activators, dose response, biochemical, luminescence, uHTS hits (AID 463120); format: functional
[5] = molecular target: Intestinal-type alkaline phosphatase (Mus musculus, UniProt P24822); assay: PubChem AID 488874; format: functional
Sequence of Intestinal-type alkaline phosphatase (Mus musculus, UniProt P24822) (P24822 whole entry): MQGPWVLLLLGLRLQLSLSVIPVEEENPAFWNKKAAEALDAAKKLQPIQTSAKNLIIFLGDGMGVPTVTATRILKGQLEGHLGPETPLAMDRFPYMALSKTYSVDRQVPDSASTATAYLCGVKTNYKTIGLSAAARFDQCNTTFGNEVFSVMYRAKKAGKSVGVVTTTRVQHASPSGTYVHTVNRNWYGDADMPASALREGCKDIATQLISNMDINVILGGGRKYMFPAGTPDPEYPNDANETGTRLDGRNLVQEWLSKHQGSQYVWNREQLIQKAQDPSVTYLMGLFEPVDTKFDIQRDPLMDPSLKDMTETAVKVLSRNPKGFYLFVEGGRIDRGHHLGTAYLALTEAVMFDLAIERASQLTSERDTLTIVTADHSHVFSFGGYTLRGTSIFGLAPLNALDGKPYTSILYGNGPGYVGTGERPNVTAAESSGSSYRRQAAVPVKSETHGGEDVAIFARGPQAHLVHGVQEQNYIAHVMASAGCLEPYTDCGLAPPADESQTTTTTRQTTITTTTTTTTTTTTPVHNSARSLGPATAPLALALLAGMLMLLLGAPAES

[6] = molecular target: T3, Ubiquitin-conjugating enzyme E2 N (Homo sapiens, UniProt P61088); format: functional
T3 sequence (P61088 whole entry): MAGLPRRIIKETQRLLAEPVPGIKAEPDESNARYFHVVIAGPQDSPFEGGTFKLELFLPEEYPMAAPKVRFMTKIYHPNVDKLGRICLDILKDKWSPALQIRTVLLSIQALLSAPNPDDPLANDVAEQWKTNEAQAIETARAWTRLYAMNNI

[7] = molecular target: T4, Bcl-2-related protein A1 (Mus musculus, UniProt Q07440); format: functional;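 further: confirmatory dose–response counterscreen on Bfl-1, used to check hits from a UBC13 polyubiquitin inhibitor campaign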
T4 sequence (Q07440 whole entry): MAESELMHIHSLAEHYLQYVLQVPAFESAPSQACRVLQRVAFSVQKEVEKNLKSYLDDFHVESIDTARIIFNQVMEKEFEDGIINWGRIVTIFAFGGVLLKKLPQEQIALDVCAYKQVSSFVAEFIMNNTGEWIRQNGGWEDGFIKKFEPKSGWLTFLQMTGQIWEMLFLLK

[8] = molecular target: T3, Ubiquitin-conjugating enzyme E2 N; format: functional; remark: listed apart in the source
[9] = molecular target: T5, Long-chain-fatty-acid--AMP ligase FadD28 (Mycobacterium tuberculosis, UniProt P9WQ59); assay: Fluorescence polarization aasay to screen for inhibitors that compete for the binding of FadD28 to a bisubstrate Measured in Biochemical System Using Plate Reader - 2147-01_Inhibitor_Dose_CherryPick_Activity.; format: functional, Mycobacterium tuberculosis H37Rv
T5 sequence (P9WQ59 whole entry): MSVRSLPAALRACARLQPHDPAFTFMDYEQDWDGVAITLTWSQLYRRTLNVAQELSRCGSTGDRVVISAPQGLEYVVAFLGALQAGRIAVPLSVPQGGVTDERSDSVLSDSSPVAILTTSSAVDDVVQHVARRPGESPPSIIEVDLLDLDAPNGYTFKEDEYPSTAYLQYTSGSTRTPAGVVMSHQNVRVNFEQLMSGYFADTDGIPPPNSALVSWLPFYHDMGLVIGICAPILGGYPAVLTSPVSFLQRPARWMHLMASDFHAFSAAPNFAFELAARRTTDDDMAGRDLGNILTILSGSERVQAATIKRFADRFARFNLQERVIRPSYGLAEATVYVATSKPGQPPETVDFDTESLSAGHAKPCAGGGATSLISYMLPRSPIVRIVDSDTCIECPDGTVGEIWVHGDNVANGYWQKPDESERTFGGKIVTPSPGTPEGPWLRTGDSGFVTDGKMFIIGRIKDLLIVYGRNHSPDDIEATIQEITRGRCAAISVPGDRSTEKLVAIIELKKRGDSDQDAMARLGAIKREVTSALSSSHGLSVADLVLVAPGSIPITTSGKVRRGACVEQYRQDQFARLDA

Structure (SMILES) | AC50 [1] | EC50 [2] | EC50 [3] | EC50 [4] | IC50 [5] | further results
CCc1ccc2c(COC(=O)C3CC(=O)N(CCc4ccccc4)C3)cc(=O)oc2c1 (centres undefined) | 133 µM (active) | – | – | – | – | –
Cc1ccc(S(=O)(=O)CCNC(=O)Cc2ccc(Cl)cc2)cc1 | 46.1 µM (active) | – | – | – | – | –
CC(C)(C)OC(=O)N1CCC(NC(=O)c2[nH]cnc2C(=O)Nc2ccon2)CC1 | – | 13.9 µM (active) | 13.3 µM (active) | 10.1 µM (active) | 47.2 µM (active) | –
O=C(CCCn1c(=O)c2ccccc2n(Cc2cccc(F)c2)c1=O)NC1CCN(Cc2ccccc2)CC1 | – | – | – | – | – | IC50 [6]: 1.31 µM (active); IC50 [7]: > 20 µM (inactive); IC50 [8]: 2.11 µM (active)
CN(C)S(=O)(=O)c1cccc(NC(=S)NNC(=O)c2cc3ccccc3cc2O)c1 | – | 12.5 µM (active) | 16.1 µM (active) | 8.74 µM (active) | 34.2 µM (active) | AC50 [9]: 77.8 µM (active)
